Experimental data taken from patent US6693126B2, “Dihydroxyphenyl derivatives for hepatoprotection and treatment of liver diseases” (Choongwae Pharm. Co., Ltd., priority 2000, dated 2004).

How the values were obtained:
[1] = test system: Fulminant Liver Injuries caused by D-galactosamine/lipopolysaccharide in Mice; experiment: Inhibitory effect against fulminant liver injuries caused by D-galactosamine/lipopolysaccharide in mice (survival); assay type: in vivo, Mice (ICR, male); details: D-galactosamine 800 mg/kg + lipopolysaccharide 10 μg/kg i.p., dose 50 mg/kg oral once, observed 24 hours
Text: Further, the D-galactosamine/lipopolysaccharide model(see, Chris Galanos et al., Proc. Natl. Acad. Sci. USA, 76, 11, 5939-5943, 1979; Koji Hase et al., Biol. Pharm. Bull., 20, 4, 381-385, 1997; Junichi Nagakawa et al., The Journal of Pharmacology and Experimental Therapeutics, 264, 1, 1992; Nolan J. D., Hepatology, 1, 458-465, 1981; Wendel A., Methods Enzymol., 186, 675-680, 1990) which is also used in the present invention for the identification of hepatoprotective effect is based on the phenomena that liver injuries are caused by immune responses in mouse. It has been reported that such kind of liver injuries are caused not by direct tissue lesions due to the chemicals but by secretion of tumor necrosis factor(TNF)-α, reactive oxygen, etc.(see, Hishinuma I. et al., Hepatology, 12, 1187-1191, 1990, Hase K. et al., Phytother. Res., 10, 387-392, 1996). Here, D-galactosamine supresses protein biosynthesis and as well highly increases the sensitivity of the liver cells for lipopolysaccharide by reducing uridine nucleotide.
The hepatoprotective effect of the compound of the present invention was identified according to a known procedure(see, Koji Hase et al., Biol. Pharm. Bull., 20, 4, 381-385, 1997), and the protocol may be described in brief as follows.
(§1) Mice(ICR, male, 27˜35 g) as the test animal were allowed in a condition of temperature 22±1° C. and relative humidity 60±5%. Feed and water were provided with no restriction while light and darkness were changed at an interval of 12 hours.
The compound of the present invention was suspended in a solvent corn oil, and this suspension was administered in a dose of 10 ml/kg. Each group included 10 test animals, and the test compound was orally administered once per animal. After 1 hour from the administration of the test compound, D-galactosamine and lipopolysaccharide each of which dissolved in physiological saline were intraperitoneally injected at the same time in doses of 800 mg/kg and 10 μg/kg, respectively. As the control compounds, SY-640[N-methyl-N-(3,4-methylenedioxyphenacyl)acetamide; EP0350251], silymarin and DDB were selected.
The statistical significance for the test result of each group was examined based on Student's t-test, and the result was recognized as having a statistical significance when its P value is less than 5%.

[2] = test system: Liver Injuries caused by Carbon Tetrachloride in Rats; experiment: Inhibitory effect against liver injuries caused by carbon tetrachloride in rats; assay type: in vivo, Rats (SD, male); details: CCl4 i.p., serum 24 h
Text: (§2) The carbon tetrachloride model(see, Philippe letteron et al., Biochemical Pharmacology, 39, 12, 2027-2034, 1990; Tips, 10, 1989; Kyoichi Kagawa et al., Japan J. Pharmacol., 42, 19-26, 1986; K. T. Liu and P. Lesca, Chem. Biol. Interactions, 41, 39-47, 1982; Richard O. et al., J. Biological Chemistry, 236, 2, 1961) is used most generally. This model has been established based on the internal phenomena that carbon tetrachloride is converted by cytochrome P-450 to a toxic free radical trichloromethyl(CCl3.), this radical is strongly bound to a thiol group of membrane protein on microsome of liver to form a lipid radical, which is then converted to a peroxy radical in the presence of oxygen to facilitate the peroxidation reaction of membrane lipid. That is, carbon tetrachloride suppresses protein biosynthesis in the liver, induces the increase of ALT and AST values in blood, and further causes histologically the centrilobular necrosis of the liver.
(§3) The degree of liver damage in the experimental animals was determined by measuring ALT and AST values in blood(see, Biol. Pharm. Bull., 20, 4, 381-385, 1997; Toxicology and Applied Pharmacology, 95, 1-11, 1988), and the hepatoprotective activity was calculated based on the following formula(see, Planta Medica, 55, 127-132, 1989). At this time, the hepatoprotective activity can also be calculated based on the same formula by replacing ALT value with AST value. [formula]
(§4) The hepatoprotective effect of the compound of the present invention was identified according to a known procedure(see, Philippe letteron et al., Biochemical Pharmacology, 39, 12, 2027-2034, 1990), and the protocol may be described in brief as follows.
(§5) Rats(SD, male, 180˜200 g) and mice(ICR, male, 27-35 g) used in the test were allowed in a condition of temperature 22±1° C. and relative humidity 60±5%. Feed and water were provided with no restriction while light and darkness were changed at an interval of 12 hours.
(§6) […] […] Each group included 8 test animals, and the test compound was orally administered once per animal. After 30 minutes(rat) or 1 hour(mouse) from the administration of the test compound, 10% carbon tetrachloride in corn oil solution was intraperitoneally injected in doses of 2 ml/kg in rats and 0.15 ml/kg in mice. As the control compounds, silymarin and DDB were selected.
(§7) The test animals were provided with no feed and sufficient water for 24 hours from the administration of carbon tetrachloride. […] This blood was centrifuged to obtain sera. ALT and AST values in the sera were measured using blood chemistry analyzer(Vitalab, Selectra II, Merck). The statistical significance for the test result of each group was examined based on Student's t-test, and the result was recognized as having a statistical significance when its P value is less than 5%.

[3] = test system: Liver Injuries caused by Thioacetamide in Mice; experiment: Inhibitory effect against liver injuries caused by thioacetamide in mice; assay type: in vivo, Mice (ICR, male); details: thioacetamide i.p., dose 50 mg/kg p.o. once, serum 24 h
Text: The hepatoprotective effect of the compound of formula (1) was also identified by thioacetamide model(see, Masuda Yasusuke and Nakayama Nobue, Biochemical Pharmacology, 31, 17, 2713-2725, 1982; Liu Jie et al., Acta Pharmacologica Sinica, 16, 2, 97-102, 1995; Story D. L. et al., J. Tox. Environ. Health, 11, 483-501, 1983; Gomez-Lechon M. J. et al., Xenobiotica, 18, 6, 725-735, 1988) which is frequently used as an experimental model for liver injuries. This model has been established based on the phenomena that thioacetamide activated by P-450 S-oxidation inordinately increases the influx of calcium ion(Ca^++) into the liver cells, which in turn activates calcium ion-dependent phospholipase, protease and endonuclease, changes the cell frame through the calcium ion, exhausts ATP, and consequently destroys the liver cells. Thioacetamide also damages ureogenesis pathway in liver, and the metabolite of thioacetamide inhibits the transfer of RNA and makes the liver cell membranes unstable. A series of these activities results in the destruction of the liver cells, which in turn causes the increase of ALT and AST values in blood and also causes histologically the centrilobular necrosis.
as §3
The hepatoprotective effect of the compound of the present invention was identified according to a known procedure(see, Landon, E. J. et al., Biochemical Pharmacology, 35, 4, 697-705, 1986), and the protocol may be described in brief as follows.
as §1
The compound of the present invention was suspended in a solvent corn oil, and this suspension was administered in a dose of 10 ml/kg. Each group included 8 test animals, and the test compound was orally administered once per animal. After 1 hour from the administration of the test compound, thioacetamide solution(concentration: 90 mg/ml) in physiological saline was intraperitoneally injected in a dose of 1 ml/kg. As the control compounds, silymarin and DDB were selected.
as §7, with “thioacetamide.” for “carbon tetrachloride.”

[4] = test system: Liver Injuries caused by Carbon Tetrachloride in Mice; experiment: Inhibitory effect against liver injuries caused by carbon tetrachloride in mice; assay type: in vivo, mice (ICR, male); details: CCl4 i.p., serum 24 h
Text: as §2, §3, §4, §5, §6, §7

## CC(=O)N(C)CC(=O)c1ccc2c(c1)OCO2 [SY-640, N-methyl-N-(3,4-methylenedioxyphenacyl)acetamide, reference compound]
[1]
  Survival Rate (%): 90%

## C(=N\OCc1ccccn1)/c1ccc2c(c1)OCO2 [Compound 9, 1-[(2-pyridyl)methoxy]-1-aza-2-benzo[3,4-d]1,3-dioxolan-5-ylethene]
[2]; dose 1.9 mg/kg p.o. once
  Inhibitory Effect against Liver Injuries (%) ALT: 61%
[2]; dose 5.6 mg/kg p.o. once
  Inhibitory Effect against Liver Injuries (%) ALT: 60%
[2]; dose 16.7 mg/kg p.o. once
  Inhibitory Effect against Liver Injuries (%) ALT: 56%
[2]; dose 50 mg/kg p.o. once
  Inhibitory Effect against Liver Injuries (%) ALT: 75%
[3]
  Inhibitory Effect against Liver Injuries (%) ALT: 29%
[1]
  Survival Rate (%): 90%
[4]; dose 1.9 mg/kg p.o. once
  Inhibitory Effect against Liver Injuries (%) ALT: 64%
[4]; dose 5.6 mg/kg p.o. once
  Inhibitory Effect against Liver Injuries (%) ALT: 64%
[4]; dose 16.7 mg/kg p.o. once
  Inhibitory Effect against Liver Injuries (%) ALT: 87%
[4]; dose 50 mg/kg p.o. once
  Inhibitory Effect against Liver Injuries (%) ALT: 98%
